The test system of data set [1] is fall armyworm. The following applies: fipronil 12 mg/L.
Method: To produce cell free filtrates, cultures of Yersinia entomophaga grown in LB medium were centrifuged at 11,448 (g) for 10 minutes. The supernatant was decanted from the centrifuged pellet and filtered through a 0.22 μm filter. Assays were performed to determine concentrations of Yen-TC (toxin complex) using ELISA, and chitinase by measuring chitinase activity on specific substrates. […] This was done to estimate relative potency of the cell free filtrates. Insects were first pre-screened with a range of dilutions of cell free filtrates to select a concentration that provided moderate activity. […] Based on these initial screens, undiluted cell free filtrate was used for cabbage looper, fall armyworm, black cutworm, and Colorado potato beetle.
Cabbage leaf disks were dipped in either acetone (controls and Y. entomophaga alone treatments) or fipronil (Sigma 46451) at 12 mg/L in acetone. These were set to dry for 1 hr. […] After the cabbage disks had dried for 1 hr, a single 3rd instar fall armyworm was added to each individual cabbage disk. A total of 20 insects were evaluated for each treatment. Insects were observed daily and scored as live or dead.
Cabbage leaf disks were dipped in either acetone (controls and Y. entomophaga alone treatments) or esfenvalerate (Sigma 46277) at 56 mg/L in acetone. These were set to dry for 1 hr. […] After the cabbage disks had dried for 1 hr, a single 3rd instar fall armyworm was added to each individual cabbage disk. A total of 20 insects were evaluate for each treatment. Insects were observed daily and scored as live or dead.
The test system of data set [2] is fall armyworm. As to the kind of experiment: Leaf disk mortality assay, Y. entomophaga cells with chemical insecticides. The following applies: for mortality at 4 µg/mL: Spodoptera frugiperda, foliar; for % Mort. Chem. / LT50 Chem.: fall armyworm.
Another data set deals with Yersinia entomophaga. As to the kind of experiment: CFU counts after exposure of Yersinia entomophaga to insecticides. The following applies: 1 hour contact. It counts as cell-based. The text has this: To test combinations of Yersinia entomophaga and pesticides for their ability to produce a pesticidal effect, or an effect on plant growth or yield, we first put various insecticides in contact with Yersinia to identify insecticides that had minimal toxicity to Yersinia entomophaga. The logic was that, if Yersinia entomophaga is to function well in combination with a chemical insecticide, the chemical insecticide would ideally have low or no effect on the ability of Yersinia entomophaga to survive, grow and/or to function.
To perform this study, we selected amounts of various insecticides based on the percent of the specific insecticide in the insecticide composition obtained from a manufacturer. We also considered the application rate of the particular insecticide, as recommended by the manufacturer. […] Generally, the 1× amount was considered possibly the lowest amount of insecticide that may be considered as an effective amount for use in the combinations disclosed herein. For each insecticide, we also used a higher amount of insecticide (generally a 5× or 10× amount).
The 1× and 5×/10× amounts of each insecticide were added to tubes along with 1 ml of ethyl acetate. The tubes were mixed until the insecticides dissolved. The tubes were left open in a fume hood overnight to allow the ethyl acetate to evaporate. The insecticide remained in the tubes, as a solid coat on the interior surface of the tubes.
A growing culture of Yersinia entomophaga, grown in LB medium, was diluted and 1 ml of the diluted culture was added to each tube containing the dried insecticide. The tubes were mixed and then left on the bench top for 1 hour. Then, 100 μl from each tube was plated onto LB plates in triplicate in CFU assays. Plates were incubated at 25° C. for 48 hours and colonies were counted.

The test system of data set [3] is cabbage looper.
The test system of another data set is diamondback moth. As to the kind of experiment: whole plant or invertebrate. The following applies: indoxacarb […].
From the text: (§1) These were set to dry for 1 hr.
as §1
These were set to dry for 1 hr. Cabbage disks were then dipped in either 1% Luria broth (LB) media solution (controls and thiacloprid alone treatments) or in 1% cell free filtrate from a culture Y. entomophaga isolate O24G3R (Y. entomophaga alone or in combination with thiacloprid treatments).

Data set [4] has as its system cabbage looper. The following applies: for LT50 Chem. / % Mort. Chem.: Cabbage Looper.
Method: (§2) To produce cell free filtrates, cultures of Yersinia entomophaga grown in LB medium were centrifuged at 11,448 (g) for 10 minutes. The supernatant was decanted from the centrifuged pellet and filtered through a 0.22 μm filter. Assays were performed to determine concentrations of Yen-TC (toxin complex) using ELISA, and chitinase by measuring chitinase activity on specific substrates. […] This was done to estimate relative potency of the cell free filtrates. Insects were first pre-screened with a range of dilutions of cell free filtrates to select a concentration that provided moderate activity. […] Based on these initial screens, undiluted cell free filtrate was used for cabbage looper, fall armyworm, black cutworm, and Colorado potato beetle. […] In each of the Examples below, this is expressed as 1%.
Cabbage leaf disks were dipped in either acetone (controls and Y. entomophaga alone treatments) or novaluron (Sigma 32419) at 1.0 mg/L in acetone. These were set to dry for 1 hr. […] After the cabbage disks had dried for 1 hr, a single 3rd instar cabbage looper was added to each individual cabbage disk. A total of 20 insects were evaluate for each treatment. Insects were observed daily and scored as live or dead.
The test system of data set [5] is black cutworm. The following applies: indoxacarb 0.53 mg/L.
Method: as §2
Cabbage leaf disks were dipped in either acetone (controls and Y. entomophaga alone treatments) or in indoxacarb (Sigma 33969) at 0.53 mg/L in acetone. These were set to dry for 1 hr. […] After the cabbage disks had dried for 1 hr, a single 2nd instar black cutworm was added to each individual cabbage disk. A total of 20 insects were evaluate for each treatment. Insects were observed daily and scored as live or dead.
Cabbage leaf disks were dipped in either acetone (controls and Y. entomophaga alone treatments) or in flubendiamide (Sigma 32801) at 0.59 mg/L in acetone. These were set to dry for 1 hr. […] After the cabbage disks had dried for 1 hr, a single 2nd instar black cutworm was added to each individual cabbage disk. A total of 20 insects were evaluate for each treatment. Insects were observed daily and scored as live or dead.
In data set [6] the test system is black cutworm. As to the kind of experiment: Leaf disk mortality assay, Y. entomophaga cells with chemical insecticides.
Data set [7] deals with cabbage looper. As to the kind of experiment: whole plant or invertebrate. The following applies: Trichoplusia ni, foliar.
Setting [8] is: 3rd instar, indoxacarb 0.53 mg/L, isolate O43NEW 1×10^6 cfu/mL.
The mark [9] stands for this setting: 3rd instar, indoxacarb 0.53 mg/L, isolate O43NEW 1×10^4 cfu/mL.

Molecules are shown by their SMILES. Values joined by “and” are separate entries in the source; they are usually repeats but may differ in a detail not shown here. Equal values may be shown once. Read-outs that look alike come from different tables or passages of the source.

As to `N#Cc1nn(-c2c(Cl)cc(C(F)(F)F)cc2Cl)c(N)c1[S+]([O-])C(F)(F)F` (centres unmarked) [Fipronil], the “LT50 (95% confidence intervals) in days” value with fall armyworm [1] (3rd instar fall armyworm, O43NEW undiluted filtrate, alone or combined) is 51.74 (34.99-79.58) days; with fall armyworm [2] (3rd instar, fipronil 4 mg/L, isolate O24G3R 1×10^5 cfu/mL), 6.71 (6.15-7.32) days; in the data set on fall armyworm [2] (3rd instar, fipronil 4 mg/L, isolate O24KEK 1×10^5 cfu/mL) it was 6.71 (6.15-7.31) days; in the data set on fall armyworm [2] (3rd instar, fipronil 4 mg/L, isolate O333A4 1×10^5 cfu/mL) it was 6.71 (6.15-7.31) days. Besides, the “LT50 Chem.” value with fall armyworm [1] (Fall armyworm) was 51.74 days; in the data set with fall armyworm [2] (Fipronil alone 4 mg/L), 8.86 days and 6.71 days. Moreover, the “% Mort. Chem.” value in the data set with fall armyworm [1] (Fall armyworm, 8 DAT) is given as 0%; in the data set on fall armyworm [2] (Fipronil 4 mg/L, 4 DAT (row with O24KEK)), 5%; in the data set with fall armyworm [2] (Fipronil 4 mg/L, 4 DAT (row with O333A4)), 5%; with fall armyworm [2] (Fipronil 4 mg/L, 5 DAT (row with O24G3R)) it was 21%; in the data set on fall armyworm [2] (Fipronil 4 mg/L, 5 DAT (row with O43NEW)) it was 5%. Moreover, the “LT50 (95% confidence intervals)” value with fall armyworm [2] (3rd instar, fipronil 4 mg/L, isolate O43NEW 1×10^5 cfu/mL) is 8.86 days. In addition, the mortality at 4 µg/mL was determined as 5% in the data set on fall armyworm [2] (96 h, read-out: % Mortality (4DAT), 3rd instar, fipronil 4 mg/L, isolate O24G3R 1×10^5 cfu/mL); 5% in the data set on fall armyworm [2] (96 h, read-out: % Mortality (4DAT), 3rd instar, fipronil 4 mg/L, isolate O24KEK 1×10^5 cfu/mL); 5% in the data set with fall armyworm [2] (96 h, read-out: % Mortality (4DAT), 3rd instar, fipronil 4 mg/L, isolate O333A4 1×10^5 cfu/mL); 21% in the data set on fall armyworm [2] (120 h, read-out: % Mortality (5DAT), 3rd instar, fipronil 4 mg/L, isolate O24G3R 1×10^5 cfu/mL); 21% in the data set with fall armyworm [2] (120 h, read-out: % Mortality (5DAT), 3rd instar, fipronil 4 mg/L, isolate O24KEK 1×10^5 cfu/mL); 5% with fall armyworm [2] (120 h, read-out: % Mortality (5DAT), 3rd instar, fipronil 4 mg/L, isolate O43NEW 1×10^5 cfu/mL). Moreover, the mortality at 4 µg/mL is 21% with fall armyworm [2] (120 h, read-out: % Mortality (5DAT), 3rd instar, fipronil 4 mg/L, isolate O333A4 1×10^5 cfu/mL); 39% in the data set on fall armyworm [2] (144 h, read-out: % Mortality (6DAT), 3rd instar, fipronil 4 mg/L, isolate O24KEK 1×10^5 cfu/mL); 20% with fall armyworm [2] (144 h, read-out: % Mortality (6DAT), 3rd instar, fipronil 4 mg/L, isolate O43NEW 1×10^5 cfu/mL); 39% in the data set with fall armyworm [2] (144 h, read-out: % Mortality (6DAT), 3rd instar, fipronil 4 mg/L, isolate O333A4 1×10^5 cfu/mL).
Consider `CNC(=O)Oc1cccc2ccccc12` [Carbaryl], for which the “Average CFU” value with Yersinia entomophaga (1.0 mg insecticide) turned out to be 456 CFU; in the data set on Yersinia entomophaga (9.6 mg insecticide) it was 459 CFU. Moreover, the “% Mort. Chem.” value in the data set with cabbage looper [3] (cabbage looper, Carbaryl 100 mg/L, 2 DAT) came to 21%; in the data set on tobacco budworm (tobacco budworm, Carbaryl 100 mg/L, 4 DAT), 50%. The “LT50 Chem.” value in the data set on cabbage looper [3] (cabbage looper, Carbaryl alone 100 mg/L) stood at 3.60 days; with tobacco budworm (tobacco budworm, Carbaryl alone 100 mg/L), 4.06 days. Also, in the data set on cabbage looper [3] (in vivo), the “% Mortality (1DAT)” value is 4%. Besides, the “% Mortality (2DAT)” value with cabbage looper [3] (in vivo) is 21%. For the same molecule, the “LT50 (95% confidence intervals) in days” value in the data set with cabbage looper [3] (in vivo) is reported as 3.60 (3.12-4.17) days; with tobacco budworm (in vivo), 4.06 (3.65-4.52) days. In the data set with tobacco budworm (in vivo), the “% Mortality (4DAT)” value is 50%. Moreover, the “% Mortality (5DAT)” value in the data set with tobacco budworm (in vivo) is given as 65%.
As to `COC(=O)N(C(=O)N1CO[C@@]2(C(=O)OC)Cc3cc(Cl)ccc3C2=N1)c1ccc(OC(F)(F)F)cc1` [Indoxacarb], the “Average CFU” value in the data set on Yersinia entomophaga (0.2 mg insecticide) amounted to 452 CFU; in the data set with Yersinia entomophaga (1.1 mg insecticide), 477 CFU. Further, the “LT50 (95% confidence intervals)” value in the data set on diamondback moth (2nd instar diamondback moth, O43NEW filtrate 1%, alone or combined) stood at 3.47 days; in the data set with fall armyworm [2] (setting [8]), 9.65 days. Also, the “LT50 Chem.” value in the data set with diamondback moth (Diamondback moth) was 3.47 days; in the data set with cabbage looper [4] (indoxacarb 0.53 mg/L) it was 11.98 days; in the data set with black cutworm [5] (Black cutworm), 10.99 days; in the data set on fall armyworm [2] (Indoxacarb alone 0.53 mg/L), 9.65 days; with fall armyworm [2] (Indoxacarb alone […]), 5.14 days; with black cutworm [6] (black cutworm, Indoxacarb alone 0.53 mg/L), 7.64 days. Besides, the “% Mort. Chem.” value in the data set with cabbage looper [4] (indoxacarb 0.53 mg/L, 9 DAT) worked out at 25%; in the data set with black cutworm [5] (Black cutworm, 9 DAT) it was 21%; with fall armyworm [2] (Indoxacarb 0.53 mg/L, 6 DAT), 10%; in the data set with black cutworm [6] (black cutworm, Indoxacarb 0.53 mg/L, 5 DAT), 0%. Besides, the “% Mortality (2DAT)” value in the data set on cabbage looper [4] (cabbage looper, indoxacarb 0.53 mg/L, undiluted O43NEW filtrate, 2 DAT, Abbott's corrected) worked out at 0%; with black cutworm [5] (2nd instar black cutworm, O43NEW undiluted filtrate, alone or combined, 2 DAT, Abbott's corrected), 0%. Also, the “% Mortality (6DAT)” value is reported as 15% in the data set with cabbage looper [4] (cabbage looper, indoxacarb 0.53 mg/L, undiluted O43NEW filtrate, 6 DAT, Abbott's corrected); 0% with black cutworm [5] (2nd instar black cutworm, O43NEW undiluted filtrate, alone or combined, 6 DAT, Abbott's corrected); 10% in the data set on fall armyworm [2] (setting [8]); 6% in the data set with black cutworm [6] (setting [9]). The “% Mortality (7DAT)” value in the data set on cabbage looper [4] (cabbage looper, indoxacarb 0.53 mg/L, undiluted O43NEW filtrate, 7 DAT, Abbott's corrected) was found to be 15%. Besides, the “% Mortality (8DAT)” value came to 25% in the data set with cabbage looper [4] (cabbage looper, indoxacarb 0.53 mg/L, undiluted O43NEW filtrate, 8 DAT, Abbott's corrected) and 11% in the data set with black cutworm [5] (2nd instar black cutworm, O43NEW undiluted filtrate, alone or combined, 8 DAT, Abbott's corrected). Moreover, the “% Mortality (9DAT)” value with cabbage looper [4] (cabbage looper, indoxacarb 0.53 mg/L, undiluted O43NEW filtrate, 9 DAT, Abbott's corrected) is reported as 25%; in the data set on black cutworm [5] (2nd instar black cutworm, O43NEW undiluted filtrate, alone or combined, 9 DAT, Abbott's corrected), 21%. Further, in the data set on cabbage looper [4] (cabbage looper, indoxacarb 0.53 mg/L, undiluted O43NEW filtrate, 12 DAT, Abbott's corrected), the “% Mortality (12DAT)” value was found to be 61%. For the same molecule, the “% Mortality (14DAT)” value in the data set with cabbage looper [4] (cabbage looper, indoxacarb 0.53 mg/L, undiluted O43NEW filtrate, 14 DAT, Abbott's corrected) was 59%. The “LT50 (95% confidence intervals) in days” value in the data set with black cutworm [5] (2nd instar black cutworm, O43NEW undiluted filtrate, alone or combined) is given as 10.99 (9.75-12.42) days; in the data set on fall armyworm [2] (3rd instar, indoxacarb […], isolate O23ZMJ 1×10^5 cfu/mL), 5.14 (4.67-5.66) days; in the data set with black cutworm [6] (setting [9]) it was 7.64 (7.01-8.32) days. Further, the entries for the “% Mortality (5DAT)” value with fall armyworm [2] (setting [8]) and with black cutworm [6] (setting [9]) were 5% and 0%, respectively. Further, the “% Mortality (3DAT)” value in the data set with black cutworm [6] (setting [9]) is reported as 11%. Further, the “% Mortality (4DAT)” value in the data set on black cutworm [6] (setting [9]) is given as 6%.
For `O=C(NC(=O)c1c(F)cccc1F)Nc1ccc(OC(F)(F)C(F)OC(F)(F)F)c(Cl)c1` (centres unmarked) [Novaluron], the “Average CFU” value in the data set with Yersinia entomophaga (0.1 mg insecticide) came to 528 CFU; in the data set on Yersinia entomophaga (1.0 mg insecticide) it was 452 CFU. Besides, the “% Mort. Chem.” value with cabbage looper [3] (cabbage looper, Novaluron 1 mg/L, 5 DAT) stood at 11%; with cabbage looper [4] (novaluron 1 mg/L, 6 DAT), 0%. Further, the “LT50 Chem.” value in the data set with cabbage looper [3] (cabbage looper, Novaluron alone 1 mg/L) came out at 7.55 days; in the data set with cabbage looper [4] (novaluron 1 mg/L) it was 7.31 days; with black cutworm [6] (black cutworm, Novaluron alone […]), 9.40 days. Further, the “LT50 (95% confidence intervals) in days” value in the data set with cabbage looper [3] (in vivo) is 7.55 (7.01-8.13) days; in the data set on black cutworm [6] (3rd instar, novaluron […], isolate O43NEW 1×10^4 cfu/mL), 9.40 (8.58-10.32) days. The mortality at 1 µg/mL in the data set with cabbage looper [7] (120 h, read-out: % Mortality (5DAT)) was 11%; in the data set on cabbage looper [7] (144 h, read-out: % Mortality (6DAT)), 21%.
Take `CNC(=O)ON=C(C)SC` [Methomyl]: the “Average CFU” value in the data set on Yersinia entomophaga (0.3 mg insecticide) is given as 192 CFU; in the data set on Yersinia entomophaga (3.4 mg insecticide), 0 CFU. Also, in the data set with cabbage looper [3] (cabbage looper, Methomyl alone 30 mg/L), the “LT50 Chem.” value amounted to 5.84 days. In addition, the “% Mort. Chem.” value with cabbage looper [3] (in vivo) was 12%. Further, the “LT50 (95% confidence intervals) in days” value with cabbage looper [3] (in vivo) is recorded as 5.84 (4.99-6.88) days. For the same molecule, the mortality at 30 µg/mL in the data set with cabbage looper [7] (24 h, read-out: % Mortality (1DAT)) was determined as 4%; in the data set on cabbage looper [7] (48 h, read-out: % Mortality (2DAT)), 12%.

The values above are taken from patent US11716994B2, “Combinations of Yersinia entomophaga and pesticides or other substances” (priority 2017, dated 2023).
